In US5648344A, “Methods of treating inflammation using selection binding compounds” (Glycomed Incorporated, priority 1992, dated 1997):

Columns and labels:
ELAM-1 [1] = test: Inhibition by carbohydrates of ELAM-transfected COS cell adhesion to glycolipids; type: cell-based, human; conditions: for inhibition of cell adhesion to glycolipids: at 100 μg/ml, glycolipids eluted from DEAE-Sepharose with 5 mM potassium acetate; for inhibition of adhesion of ELAM-1 transfected COS cells to sialylated glycolipids: glycolipids resolved on TLC plates or adsorbed on PVC microtiter wells, concentration not given
From the text: Radiolabeled COS cells expressing cell surface ELAM-1 were used as probes to screen human leukocyte-derived glycolipids. ELAM-1 transfected COS cells adhered to a subset of sialylated glycolipids which were resolved on TLC plates or adsorbed on PVC microtiter wells. Adhesion to these glycolipids required calcium, but was not inhibited by heparin, chondroitin sulfate, keratin sulfate, or yeast phosphomannan (PPME).
COS cells, expressing membrane-bound ELAM-1, were metabolically radiolabeled with ^32 PO4 and used as probes in two assay systems to screen for recognition of glycolipids. In the first, glycolipids were adsorbed to the bottoms of PVC microtiter wells, while in the second they were resolved on TLC plates. In both assays these glycolipids were probed for their ability to support adhesion of ELAM-transfected COS cells, untransfected COS cells, or COS cells transfected with a plasmid containing an irrelevant cDNA, under conditions of controlled detachment force (see Swank-Hill, P., et al., Anal. Biochem. (1987) 183:27; and Blackburn, C. C., et al., J. Biol. Chem. (1986) 261:2873 each of which is incorporated herein by reference to disclose the details of such assaying methodology).
The material not retained on the column and in fractions eluted by step-wise increases in salt concentration (from 5 mM to 250 mM potassium acetate in methanol) were screened for cell adhesion.

ELAM-1 [2] = test: Adhesion of ELAM-transfected COS cells to glycolipids adsorbed to PVC microtiter wells or resolved on TLC plates (controlled detachment force); type: cell-based, human; conditions: ELAM-transfected COS cells as probes
Description: The invention also includes a method of assaying candidate ligands for their ability to adhere to ELAM-1. The method comprises attaching candidate ligands to a substrate surface and then contacting the substrate surface thereon with recombinant cells, that are genetically engineered to express high levels of ELAM-1, for a sufficient time to allow the cells to adhere to the substrate bearing the candidate ligand. […] Candidate ligands which adhere to ELAM-1 are determined via the labels on the cells. Such molecules are isolated, characterized, and their structure specifically identified. Accordingly, the invention also includes glycolipid ligands which can be isolated via such an assay procedure.
COS cells, expressing membrane-bound ELAM-1, were metabolically radiolabeled with ^32 PO4 and used as probes in two assay systems to screen for recognition of glycolipids. In the first, glycolipids were adsorbed to the bottoms of PVC microtiter wells, while in the second they were resolved on TLC plates. […]

Row | Molecule | inhibition of cell adhesion to glycolipids (ELAM-1 [1]) | inhibition of adhesion of ELAM-1 transfected COS cells to sialylated glycolipids (ELAM-1 [1]) | recognition by / binding to ELAM-1 (ELAM-1 [2])
1 | chondroitin sulfate | not inhibited | not inhibited | 
2 | heparin | not inhibited | not inhibited | 
3 | keratin sulfate | not inhibited | not inhibited | 
4 | CC(=O)N[C@H]1[C@H]([C@H](O)[C@H](O)CO)O[C@@](O[C@H]2[C@@H](O)[C@@H](CO)O[C@@H](O[C@H]3[C@H](O[C@@H]4O[C@@H](C)[C@@H](O)[C@@H](O)[C@@H]4O)[C@@H](NC(C)=O)C(O)O[C@@H]3CO)[C@@H]2O)(C(=O)O)C[C@@H]1O (stereo partly drawn) [Neu NAc α2-3Gal-β1-4(Fuc α1-3)-GlcNAc] |  |  | effectively bind to ELAM-1
5 | yeast phosphomannan | not inhibited | not inhibited | 
